From US11000033B2, “Ketone or oxime compound, and herbicide” (NISSAN CHEMICAL CORPORATION, priority 2014, dated 2021) come the findings set out here.

Format in all cases: in vivo
Holding throughout (settings): application herbicide amount 320 g/ha

Data set [1] has as its system Echinochloa oryzacola Vasing. Kind of data set: Test Example 1: herbicidal activity, application before weed generation in submerged conditions (symbol A). An excerpt: (§1) Herbicidal Activity Test by Application Before Weed Generation in Submerged Conditions
(§2) After alluvial soil was placed into 1/10000 are of Wagner pot, water was poured and mixed to form a submerged condition having a water depth of 4 cm. Seeds of Echinochloa oryzacola Vasing., Scirpus juncoides, and Monochoria vaginalis were sowed in a mixed manner in the above pot and thereafter 2.5 leaf stage rice plant seedlings were transplanted thereto. On the day of sowing seeds, the emulsion agent of the compound of the present invention prepared in accordance with Formulation Example 2 was diluted with water so as to be a predetermined herbicide amount and the diluted emulsion agent was applied to the surface of the water. The pot was placed in a greenhouse of 25° C. to 30° C. to grow plant. 3 weeks later from the herbicide application, the effect to each plant was investigated in accordance with the following criteria.
(§3) 5 Herbicidal ratio of 90% or more (almost completely withered)
(§4) 4 Herbicidal ratio of 70% or higher and lower than 90%
(§5) 3 Herbicidal ratio of 40% or higher and lower than 70%
(§6) 2 Herbicidal ratio of 20% or higher and lower than 40%
(§7) 1 Herbicidal ratio of 5% or higher and lower than 20%
(§8) 0 Herbicidal ratio of 5% or lower (almost no effect)

In a further data set the test system is Scirpus juncoides. Kind of data set: Test Example 1: herbicidal activity, application before weed generation in submerged conditions (symbol B).
Source text: as §1, §2, §3, §4, §5, §6, §7, §8

A further data set relates to Monochoria vaginalis. Kind of data set: Test Example 1: herbicidal activity, application before weed generation in submerged conditions (symbol C).
Source text: as §1, §2, §3, §4, §5, §6, §7, §8

The next data set relates to transplanted rice plant. Kind of data set: Test Example 1: effect on crop, application before weed generation in submerged conditions (symbol a). The method, then: as §1
After alluvial soil was placed into 1/10000 are of Wagner pot, water was poured and mixed to form a submerged condition having a water depth of 4 cm. Seeds of Echinochloa oryzacola Vasing., Scirpus juncoides, and Monochoria vaginalis were sowed in a mixed manner in the above pot and thereafter 2.5 leaf stage rice plant seedlings were transplanted thereto. […] The pot was placed in a greenhouse of 25° C. to 30° C. to grow plant. 3 weeks later from the herbicide application, the effect to each plant was investigated in accordance with the following criteria.
as §3, §4, §5, §6, §7, §8

Data set [2] deals with Echinochloa crus-galli var. crus-galli. The data set can be described thus: Test Example 3: herbicidal effect by foliage application, Wagner pot (symbol H). As for the experimental part: (§9) Herbicidal Effect Test by Foliage Application
(§10) After alluvial soil was placed into 1/10000 are of Wagner pot, water was poured and mixed to form a submerged condition having a water depth of 0.1 cm to 0.5 cm. Seeds of Echinochloa crus-galli var. crus-galli, Leptochloa chinensis, Cyperus difformis, and rice were sowed and the pot was placed in the greenhouse of 25° C. to 30° C. to grow the plants. After the plants were grown for 14 days, the emulsion agent of the compound of the present invention prepared in accordance with Formulation Example 2 was diluted with water so as to be a predetermined herbicide amount and the diluted emulsion agent was uniformly applied to a foliage part with a small-size spray. 3 weeks later from the herbicide application, the effect to each plant was investigated in accordance with the criteria of Test Example 1.

In the next data set the test system is Leptochloa chinensis. Kind of data set: Test Example 3: herbicidal effect by foliage application, Wagner pot (symbol D). The method, then: as §9, §10
The subject of another data set is Cyperus difformis. Kind of data set: Test Example 3: herbicidal effect by foliage application, Wagner pot (symbol E). As for the experimental part: as §9, §10
Data set [3] relates to directly sowed rice plant. Kind of data set: Test Example 3: effect on crop by foliage application, Wagner pot (symbol b). The method, then:
as §9
After alluvial soil was placed into 1/10000 are of Wagner pot, water was poured and mixed to form a submerged condition having a water depth of 0.1 cm to 0.5 cm. Seeds of Echinochloa crus-galli var. crus-galli, Leptochloa chinensis, Cyperus difformis, and rice were sowed and the pot was placed in the greenhouse of 25° C. to 30° C. to grow the plants.

Molecules are shown by their SMILES.

For the compound `CON=C(CCl)CC1CC(OC)=C(c2c(C)cc(C)cc2C)C1=O` (centres unmarked) [1-077], in data set [1], the “Herbicidal effect grade, A: Echinochloa oryzacola Vasing.” value was 1 (Herbicidal ratio of 5% or higher and lower than 20%). Besides, the “Herbicidal effect grade, B: Scirpus juncoides” value with Scirpus juncoides was 2 (Herbicidal ratio of 20% or higher and lower than 40%). Further, the “Herbicidal effect grade, C: Monochoria vaginalis” value with Monochoria vaginalis was 0 (Herbicidal ratio of 5% or lower (almost no effect)). Also, the “Effect grade on crop, a: transplanted rice plant” value with transplanted rice plant is 1 (Herbicidal ratio of 5% or higher and lower than 20%).

`CON=C(CCl)CC1CC(O)=C(c2c(C)cc(C)cc2C)C1=O` (centres unmarked) [1-084]: the “herbicidal effect on H (Echinochloa crus-galli var. crus-galli), grade 0-5” value (“herbicidal effect on H” for short) in data set [2] is 2 (Herbicidal ratio of 20% or higher and lower than 40%). Moreover, the “herbicidal effect on D (Leptochloa chinensis), grade 0-5” value (shortened to “herbicidal effect on D”) in the data set on Leptochloa chinensis was 0 (Herbicidal ratio of 5% or lower (almost no effect)). The “herbicidal effect on E, grade 0-5” value with Cyperus difformis is 0 (Herbicidal ratio of 5% or lower (almost no effect)). Moreover, in data set [3], the “effect on crop b (directly sowed rice plant), grade 0-5” value (“effect on crop b” below) is 1 (Herbicidal ratio of 5% or higher and lower than 20%).

In the case of `CON=C(C)CC1CC(OC(=S)N(C)C)=C(c2c(C)cc(C)cc2C)C1=O` (centres unmarked) [1-141], the “herbicidal effect on H” value in data set [2] was 2 (Herbicidal ratio of 20% or higher and lower than 40%). Also, the “herbicidal effect on D” value in the data set on Leptochloa chinensis was 0 (Herbicidal ratio of 5% or lower (almost no effect)). Also, the “effect on crop b” value in data set [3] was 1 (Herbicidal ratio of 5% or higher and lower than 20%).

For the compound `CON=C(C)CC1CC(OC(=O)N(c2ccccc2)c2ccccc2)=C(c2c(C)cc(C)cc2C)C1=O` (centres unmarked) [1-157], the “herbicidal effect on H” value in data set [2] is recorded as 0 (Herbicidal ratio of 5% or lower (almost no effect)). Moreover, the “herbicidal effect on D” value in the data set with Leptochloa chinensis is 4 (Herbicidal ratio of 70% or higher and lower than 90%). For the same compound, the “effect on crop b” value in data set [3] is on record as 0 (Herbicidal ratio of 5% or lower (almost no effect)).

Take `CON=C(CC1CC(O)=C(c2c(C)cc(C)cc2C)C1=O)c1ccc(C)cc1` (centres unmarked) [1-164]: in data set [2], the “herbicidal effect on H” value is 2 (Herbicidal ratio of 20% or higher and lower than 40%). Also, the “herbicidal effect on D” value in the data set on Leptochloa chinensis is 3 (Herbicidal ratio of 40% or higher and lower than 70%). Further, the “herbicidal effect on E, grade 0-5” value with Cyperus difformis was 0 (Herbicidal ratio of 5% or lower (almost no effect)). The “effect on crop b” value in data set [3] is 4 (Herbicidal ratio of 70% or higher and lower than 90%).

Consider `CON=C(C)CC1CC(O)=C(c2c(C)cc(OCc3ccncc3)cc2C)C1=O` (centres unmarked) [6-070], for which, in data set [2], the “herbicidal effect on H” value is reported as 0 (Herbicidal ratio of 5% or lower (almost no effect)). Besides, in the data set on Leptochloa chinensis, the “herbicidal effect on D” value is 4 (Herbicidal ratio of 70% or higher and lower than 90%). Moreover, the “herbicidal effect on E, grade 0-5” value in the data set with Cyperus difformis was 0 (Herbicidal ratio of 5% or lower (almost no effect)). For the same compound, the “effect on crop b” value in data set [3] was 0 (Herbicidal ratio of 5% or lower (almost no effect)).

With `CC(=O)CC1CC(O)=C(c2c(C)cc(OCc3ccncc3)cc2C)C1=O` (centres unmarked) [7-021], in data set [2], the “herbicidal effect on H” value was 2 (Herbicidal ratio of 20% or higher and lower than 40%). In addition, the “herbicidal effect on D” value in the data set with Leptochloa chinensis was 2 (Herbicidal ratio of 20% or higher and lower than 40%). Moreover, in the data set with Cyperus difformis, the “herbicidal effect on E, grade 0-5” value was 0 (Herbicidal ratio of 5% or lower (almost no effect)). Also, in data set [3], the “effect on crop b” value is given as 0 (Herbicidal ratio of 5% or lower (almost no effect)).

On to `CC(=O)CC1CC(O)=C(c2c(C)cc(C=Cc3ccccc3)cc2C)C1=O` (centres unmarked) [7-023], for which the “Herbicidal effect grade, A: Echinochloa oryzacola Vasing.” value in data set [1] was 2 (Herbicidal ratio of 20% or higher and lower than 40%). In addition, the “Herbicidal effect grade, B: Scirpus juncoides” value with Scirpus juncoides is reported as 0 (Herbicidal ratio of 5% or lower (almost no effect)). For the same compound, the “Herbicidal effect grade, C: Monochoria vaginalis” value in the data set on Monochoria vaginalis is 0 (Herbicidal ratio of 5% or lower (almost no effect)). Also, the “Effect grade on crop, a: transplanted rice plant” value in the data set with transplanted rice plant was 1 (Herbicidal ratio of 5% or higher and lower than 20%). Further, in data set [2], the “herbicidal effect on H” value is 0 (Herbicidal ratio of 5% or lower (almost no effect)). In addition, the “herbicidal effect on D” value in the data set on Leptochloa chinensis is 5 (Herbicidal ratio of 90% or more (almost completely withered)). The “herbicidal effect on E, grade 0-5” value in the data set with Cyperus difformis is 0 (Herbicidal ratio of 5% or lower (almost no effect)). Also, the “effect on crop b” value in data set [3] is on record as 0 (Herbicidal ratio of 5% or lower (almost no effect)).

In the case of `COC(=O)C(C(C)=O)C1CC(O)=C(c2c(F)cc(Br)cc2OC)C1=O` (centres unmarked) [7-028], the “H (Echinochloa crus-galli var. crus-galli) herbicidal effect grade” value in data set [2] (Table 24) is on record as 0 (Herbicidal ratio of 5% or lower (almost no effect)). The “D (Leptochloa chinensis) herbicidal effect grade” value with Leptochloa chinensis (Table 24) was 0 (Herbicidal ratio of 5% or lower (almost no effect)). For the same compound, the “E herbicidal effect grade” value in the data set with Cyperus difformis (Table 24) is 0 (Herbicidal ratio of 5% or lower (almost no effect)). In data set [3] (Table 24), the “b (directly sowed rice plant) effect on crop grade” value is on record as 0 (Herbicidal ratio of 5% or lower (almost no effect)).
